Data published in US10239957B2, “Peptide containing conjugates for dual molecular delivery of oligonucleotides” (Merck Sharp & Dohme Corp., priority 2013, dated 2019).
Where no end group is shown, it is not given here. [ ]: non-standard residue; d: D form. TGN = not defined here

Key:
CTNNB1 [1] = assay: In vivo evaluation in mice: liver mRNA knockdown measurement
Protocol: Female CD-1 mice (Charles River) were injected in accordance with either a sequential dosing paradigm or a co-dosing paradigm. In the sequential dosing paradigm, the targeted siRNA (SCE) is dosed at t=0 and the targeted peptide is separately dosed up to 2 hr before the SCE (−2 hr) or up to 24 hr after the SCE (+24 hr). In the co-dosing paradigm, the SCE and peptides are co-formulated and dosed together in the same formulation as a single injection at t=0. The mice were dosed either by intravenous (i.v.) or subcutaneous (s.c.) injection of SCE and peptide. For the i.v. doses, the compounds were injected into the tail vein of the mice. For the s.c. doses, the compounds were injected in the subcutaneous space on the back of the mouse between the shoulder blades. At the indicated harvest times (measured from t=0 when the siRNA was dosed, regardless of when the peptide was dosed), the animals were sacrificed and 3 mm liver punches were collected, preserved in RNAlater (Ambion), and stored at 4° C. Separate 5 mm liver punches were collected, placed in 96-well plates, frozen on dry ice, and stored at −80° C. until use.
The 3 mm liver punches were removed from RNAlater and homogenized in Trizol (Invitrogen) using a bead mill tissue lyser (Qiagen); disruption was performed for two 5-minute cycles at 30 Hz. RNA extraction was performed using 1-bromo-2-chloropropane (Acros Organics) and total RNA was isolated from the aqueous phase using the MagMax RNA isolation method (Ambion). […] TaqMan qPCR analysis was performed with an ABI 7900 Real-Time PCR System using TaqMan Fast Advanced Master Mix (Applied Biosystems). All TaqMan probes and primers for CTNNB1 and PPIB (housekeeping gene) were purchased from Applied Biosystems as pre-validated gene expression assays. Results are calculated by the comparative Ct method, where the difference between the CTNNB1 Ct value and the PPIB Ct value (ΔCt) is calculated and then further normalized relative to the PBS control by taking a second difference (ΔΔCt), as described previously (1).

CTNNB1 [2] = assay: In vitro DMD assay: mRNA silencing enhancement by peptide conjugates after siRNA-IV treatment; assay type: cell-based; details: primary mouse hepatocytes, siRNA-IV 125 nM baseline
Outline: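 RT-qPCR read-out, PPIB-normalized (dddCt), gave silencing enhancement versus 125 nM siRNA-IV alone and untreated cells. Beforehand, cultured primary mouse hepatocytes received siRNA-IV for 1 h, then graded peptide-conjugate doses for ~16 h, followed by washout and a further 24 h incubation.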

[3] = Table 8 (linkage comparison), TGN-L-siRNA-II 0.25 mg/kg, peptide 1 mg/kg
[4] = Table 8 (linkage comparison), TGN-L-siRNA-II 0.25 mg/kg, peptide 3 mg/kg
[5] = mice, TGN-L-siRNA-II 0.25 mg/kg IV, peptide 1 mg/kg IV 15 min after siRNA
[6] = mice, TGN-L-siRNA-II 0.25 mg/kg IV, peptide 3 mg/kg IV 15 min after siRNA
[7] = mice, TGN-L-siRNA-III 0.25 mg/kg IV, peptide 2 mg/kg IV 15 min after siRNA
[8] = mice, TGN-L-siRNA-III 0.25 mg/kg IV, peptide 10 mg/kg IV 15 min after siRNA
[9] = mice, TGN-L-siRNA-III 0.5 mg/kg IV, peptide 5 mg/kg IV 15 min after siRNA
[10] = mice, TGN-L-siRNA-III 0.25 mg/kg IV, peptide 5 mg/kg IV 15 min after siRNA

Question: How did the “In vivo mRNA knockdown” value (CTNNB1 [1]; [3]) turn out when “TGN-CDM-SEQ ID NO: 1801 (D): TGN-CDM peptide; peptide glfgeieelieeglenlidwgng; C8 made from the same all(D) sequence (G[dL][dF]G[dE][dI][dE][dE][dL][dI][dE][dE]G[dL][dE][dN][dL][dI][dD][dW]G[dN]G; also: TGN-CDM conjugate; listed as Homo sapiens)” was run?
Answer: 23.0%

Question: What about the “In vivo mRNA knockdown” value (CTNNB1 [1]; [4]) of the same substance?
Answer: 24.9%

Question: Which “In vivo mRNA knockdown” value (CTNNB1 [1]; [3]) does the source give for “TGN-ECL-SEQ ID NO: 1802 (D): TGN-ECL-peptide; peptide gffgaiwefihsil (G[dF][dF]G[dA][dI][dW][dE][dF][dI][dH][dS][dI][dL]; also: TGN-ECL conjugate; listed as Homo sapiens)” here?
Answer: 28.7%

Question: And the “In vivo mRNA knockdown” value (CTNNB1 [1]; [4])?
Answer: 64.0%

Question: For “TGN-S-S- SEQ ID NO: 1738 (D) (G[dL][dF]G[dE][dI][dE][dE][dL][dI][dE][dE]G[dL][dE][dN][dL][dI][dD][dW]G[dN]G[dL][dA][dE][dL][dA][dE][dA][dL][dE][dA][dL][dA][dA]GG[dS][dC]; not fully specified (residue 40); also: TGN attached via disulfide; listed as Homo sapiens)”, which “In vivo mRNA knockdown” value (CTNNB1 [1]; [5]) is on record?
Answer: 25%

Question: And the “In vivo mRNA knockdown” value (CTNNB1 [1]; [6])?
Answer: 44%

Question: What does the source list for “TGN-S-S-SEQ ID NO: 935 (L) (C(TGN)GFFGEIAELIWEGLKNLIDWWNG; reading uncertain; also: TGN linked to Cys via disulfide, TGN not defined; listed as Homo sapiens)”?
Answer: In vivo mRNA knockdown (CTNNB1 [1]; [7]): 17%; In vivo mRNA knockdown (CTNNB1 [1]; [8]): 23%

Question: For “TGN-S-S-SEQ ID NO: 1248 (L) (C(TGN)FLEELWELLEHLL; reading uncertain; also: TGN disulfide conjugate at Cys1; listed as Homo sapiens)”, which “In vivo mRNA knockdown” value (CTNNB1 [1]; [9]) is on record?
Answer: 24%

Question: “TGN-S-S-SEQ ID NO: 1403 (L) (C(TGN)GLLEEIEELLEEGLENLIDWWNS; reading uncertain; also: TGN disulfide conjugate at Cys1; listed as Homo sapiens)” was tested. Which “In vivo mRNA knockdown” value (CTNNB1 [1]; [7]) did it give?
Answer: 22%

Question: And the “In vivo mRNA knockdown” value (CTNNB1 [1]; [8])?
Answer: 24%

Question: “TGN-S-S-SEQ ID NO: 1489 (D) ([dC][dL][dE][dL][dW][dL][dE][dH][dL][dF][dL][dE][dL][dE]; not fully specified (residue 1); also: TGN attached via disulfide; listed as Homo sapiens)” was tested. Which “In vivo mRNA knockdown” value (CTNNB1 [1]; mice, TGN-L-siRNA-III 0.5 mg/kg IV, peptide 2 mg/kg IV 15 min after siRNA) did it give?
Answer: 37%

Question: What about the “In vivo mRNA knockdown” value (CTNNB1 [1]; mice, TGN-L-siRNA-III 0.5 mg/kg IV, peptide 10 mg/kg IV 15 min after siRNA) of the same substance?
Answer: 26%

Question: What about the “In vivo mRNA knockdown” value (CTNNB1 [1]; mice, TGN-L-siRNA-III 0.5 mg/kg IV, peptide 25 mg/kg IV 15 min after siRNA) of the same substance?
Answer: 34%

Question: For “TGN-S-S-SEQ ID NO: 1516 (L) (C(TGN)GLFAEIEELLEEGLENLIDWWNG; reading uncertain; also: TGN disulfide conjugate at Cys1; listed as Homo sapiens)”, which “In vivo mRNA knockdown” value (CTNNB1 [1]; [10]) is on record?
Answer: 14%

Question: Which “In vivo mRNA knockdown” value (CTNNB1 [1]; [8]) does the source give for “TGN-S-S-SEQ ID NO: 1643 (D) ([dC]G[dF][dF]G[dE][dI][dA][dE][dL][dI][dE][dE]G[dL][dK][dN][dL][dI][dD][dW]G[dN]G; not fully specified (residue 1); also: TGN attached via disulfide; listed as Homo sapiens)” here?
Answer: 41%

Question: “TGN-S-S-SEQ ID NO: 1716 (L) (C(TGN)GLFEELAGLLWHGLKNLIDWWNG; reading uncertain; also: TGN disulfide conjugate at Cys1; listed as Homo sapiens)” was tested. Which “In vivo mRNA knockdown” value (CTNNB1 [1]; [9]) did it give?
Answer: 39%

Question: For “TGN-S-S-SEQ ID NO: 1717(L): TGN-S-S-peptide; peptide CFLGALFHALSHLLENLIDWWNG (C(TGN)FLGALFHALSHLLENLIDWWNG; reading uncertain; also: TGN disulfide conjugate at Cys1; listed as Homo sapiens)”, which “In vivo mRNA knockdown” value (CTNNB1 [1]; [9]) is on record?
Answer: 16%

Question: For “TGN-S-S-SEQ ID NO: 1719 (L) (C(TGN)GLFAEIEELIWEGLENLIDWWNQ; reading uncertain; also: TGN disulfide conjugate at Cys1; listed as Homo sapiens)”, which “In vivo mRNA knockdown” value (CTNNB1 [1]; [10]) is on record?
Answer: 25%

Question: For “TGN-S-S-SEQ ID NO: 1725 (L) (C(TGN)SSAWWSYWPPVA; reading uncertain; also: TGN disulfide conjugate at Cys1; listed as Homo sapiens)”, which “In vivo mRNA knockdown” value (CTNNB1 [1]; [8]) is on record?
Answer: 19%

Question: Which “In vivo mRNA knockdown” value (CTNNB1 [1]; [8]) does the source give for “TGN-S-S-SEQ ID NO: 1726(D): TGN-S-S-peptide; peptide CGLFAVIKKVASVIGGL ([dC]G[dL][dF][dA][dV][dI][dK][dK][dV][dA][dS][dV][dI]GG[dL]; not fully specified (residue 1); also: TGN attached via disulfide; listed as Homo sapiens)” here?
Answer: 23%

Question: For “TGN-S-S-SEQ ID NO: 1727 (D): TGN-S-S-peptide; peptide CGLFAVIHHVASVIGGL ([dC]G[dL][dF][dA][dV][dI][dH][dH][dV][dA][dS][dV][dI]GG[dL]; not fully specified (residue 1); also: TGN attached via disulfide; listed as Homo sapiens)”, which “In vivo mRNA knockdown” value (CTNNB1 [1]; [8]) is on record?
Answer: 26%

Question: With “TGN-S-S-SEQ ID NO: 1728(D): TGN-S-S-peptide; peptide CGLFAVIEEVASVIGGL ([dC]G[dL][dF][dA][dV][dI][dE][dE][dV][dA][dS][dV][dI]GG[dL]; not fully specified (residue 1); also: disulfide to TGN peptide via Cys1; listed as Homo sapiens)” as the substance, how does the “In vivo mRNA knockdown” value (CTNNB1 [1]; [8]) read?
Answer: 23%

Question: How did the “In vivo mRNA knockdown” value (CTNNB1 [1]; [8]) turn out when “TGN-S-S-SEQ ID NO: 1729 (L) (C(TGN)GPSQPTYPGDDAPVRDLIRFYRDLRRYLNVVTRHRY; reading uncertain; also: TGN linked to Cys via disulfide, TGN not defined; listed as Homo sapiens)” was run?
Answer: 10%

Question: Which “In vivo mRNA knockdown” value (CTNNB1 [1]; [5]) does the source give for “TGN-S-S-SEQ ID NO: 1740 (D): TGN-S-S-peptide; peptide GLFEAIEGFIENGWEGLAELAEALEALAAGGSC (G[dL][dF][dE][dA][dI][dE]G[dF][dI][dE][dN]G[dW][dE]G[dL][dA][dE][dL][dA][dE][dA][dL][dE][dA][dL][dA][dA]GG[dS][dC]; not fully specified (residue 33); also: disulfide to TGN peptide via Cys33; listed as Homo sapiens)” here?
Answer: 23%

Question: And the “In vivo mRNA knockdown” value (CTNNB1 [1]; [6])?
Answer: 42%

Question: For “TGN-S-S-Seq-ID-111 (D) ([dC][dF][dF]G[dA][dI][dW][dE][dF][dI][dK][dS][dI][dL][dE]G[dL][dI][dD][dW][dW][dY]G[dY]G[dH][dK][dK][dH][dH][dQ][dH][dR]; not fully specified (residue 1); also: TGN conjugated via disulfide at Cys1; listed as Homo sapiens)”, which “In vitro dddCt (vs. baseline SCE dose)” value (CTNNB1 [2]; Targeted peptide dose 5000 nM) is on record?
Answer: −1.4

Question: For “TGN-S-S-Seq-ID-115 (D) ([dC][dL][dH][dL][dL][dH][dH][dL][dL][dH][dH][dL][dH][dH][dL][dL][dH][dH][dL][dL][dH][dL][dL][dH][dH][dL][dL][dH][dH][dL]GGG[dR][dK][dK][dR][dR][dQ][dR][dR][dR][dP][dP][dQ]; not fully specified (residue 1); also: TGN conjugated via disulfide at Cys1; listed as Homo sapiens)”, which “In vitro dddCt (vs. baseline SCE dose)” value (CTNNB1 [2]; Targeted peptide dose 5000 nM) is on record?
Answer: −0.17

Question: For “TGN-S-SEQ ID NO: 1517 (L) (CGLFGEIEELIEEGLECITLIDWWNG; cysteine pairing not given here; also: TGN-S conjugate; listed as Homo sapiens)”, which “In vitro dddCt (vs. baseline SCE dose)” value (CTNNB1 [2]; Targeted peptide dose 25 nM) is on record?
Answer: 0.54

Question: What about the “In vitro dddCt (vs. baseline SCE dose)” value (CTNNB1 [2]; Targeted peptide dose 125 nM) of the same substance?
Answer: 0.49

Question: And the “In vitro dddCt (vs. baseline SCE dose)” value (CTNNB1 [2]; Targeted peptide dose 625 nM)?
Answer: 0.48

Question: And the “In vitro dddCt (vs. baseline SCE dose)” value (CTNNB1 [2]; Targeted peptide dose 3125 nM)?
Answer: 0.33
